Literature values as cited in article PMC11012124, “Synthesis of Novel Triazine-Based Chalcones and 8,9-dihydro-7H-pyrimido[4,5-b][1,4]diazepines as Potential Leads in the Search of Anticancer, Antibacterial and Antifungal Agents” (International Journal of Molecular Sciences, 2024).

Legend:
Design in all cases: method as in earlier work
Conditions in all cases: ref https://dtp.cancer.gov/dtpstandard/cancerscreeningdata/index.jsp, read-out: GI50 5-FU (NS 18893); cited from earlier work
[1] = system: HT29
[2] = system: HOP-92
[3] = system: SN12C
[4] = system: HCT-15
[5] = system: RXF 393
[6] = system: KM12
[7] = system: HL-60(TB)
[8] = system: RPMI-8226
[9] = system: SNB-75
[10] = system: K-562
[11] = system: HCC-2998
[12] = system: IGROV1
[13] = system: SF-539
[14] = system: HCT-116
[15] = system: MOLT-4
[16] = system: SW-620
[17] = system: U251
[18] = system: OVCAR-3
[19] = system: CCRF-CEM
[20] = system: UO-31
[21] = system: SR
[22] = system: LOX IMVI
[23] = system: CAKI-1
[24] = system: MCF7
[25] = system: MDA-MB-468
[26] = system: NCI-H522

Question: What does the source list for `O=c1[nH]cc(F)c(=O)[nH]1` [5-FU, 5-fluorouracil]?
Answer: GI50 [1]: 180 nM; GI50 [2]: 78000 nM; GI50 [3]: 500 nM; GI50 [4]: 110 nM; GI50 [5]: 2610 nM; GI50 [6]: 210 nM; GI50 [7]: 2510 nM; GI50 [8]: 40 nM; GI50 [9]: 78700 nM; GI50 [10]: 3580 nM; GI50 [11]: 50 nM; GI50 [12]: 1220 nM; GI50 [13]: 60 nM; GI50 [14]: 230 nM; GI50 [15]: 350 nM; GI50 [16]: 930 nM; GI50 [17]: 910 nM; GI50 [18]: 20 nM; GI50 [19]: 9790 nM; GI50 [20]: 1430 nM; GI50 [21]: 20 nM; GI50 [22]: 250 nM; GI50 [23]: 70 nM; GI50 [24]: 80 nM; GI50 [25]: 6610 nM; GI50 [26]: 7280 nM
